The subject of assay [1] is BRD4, Pol II ser 2 phos, H3K27ac occupancy. The assay is described as follows: ChIP-seq of BRD4, Pol II ser 2 phos, H3K27ac in KARPAS422 cells. It is filed as cell-based, human. As for the experimental part:
Cells were washed in PBS and crosslinked for 12 minutes in CiA Fix Buffer (50 mM HEPES pH 8.0, 1 mM EDTA, 0.5 mM EGTA, 100 mM NaCl) with addition of formaldehyde to a final concentration of 1%. The crosslinking reaction was quenched by glycine added at 0.125 M final concentration. Crosslinked cells were centrifuged at 1,000×g for 5 minutes. Nuclei were prepared by 10 minute incubation of resuspended pellet in CiA NP-Rinse 1 buffer (50 mM HEPES pH 8.0, 140 mM NaCl, 1 mM EDTA, 10% glycerol, 0.5% IPEGAL CA-630, 0.25% Triton X100) followed by wash in CIA NP-Rinse 2 buffer (10 mM Tris pH 8.0, 1 mM EDTA, 0.5 mM EGTA, 200 mM NaCl). The pellet was resuspended in CiA Covaris Shearing Buffer (0.1% SDS, 1 mM EDTA pH 8.0, 10 mM Tris HCl pH 8.0) with 1000× protease inhibitors (Roche) and sonicated for 20 minutes with Covaris E220 sonicator (Peak Power 140, Duty Factor 5.0, Cycles/Burst 200). The distribution of fragments was confirmed with agarose gel. 300 μL of chromatin per ChIP was used with anti-BRD4 antibodies (Cell Signaling E2A7X). 50 μg of chromatin was used with anti-Pol II ser 2 phos (Abcam ab5095) and anti-Pol II ser 5 phos (ActiveMotif 3E8) antibodies. 25 μg of chromatin was used with anti-H3K27ac (Abcam ab4729). For each Pol II ser 2 phos, Pol II ser 5 phos, and H3K27ac ChIP, exactly 20 ng (for Pol II ser 2 phos and ser 5 phos) or 50 ng (for H3K27ac) Drosophila chromatin (ActiveMotif #53083) was spiked-in with 2 μL spike-in-chromatin-specific antibody (ActiveMotif #61686). After overnight incubation at 4° C. in IP buffer (50 mM HEPES pH 7.5, 300 mM NaCl, 1 mM EDTA, 1% Triton X100, 0.1% sodium deoxycholic acid salt (DOC), 0.1% SDS), Ips were washed twice with IP buffer, once with DOC buffer (10 mM Tris pH 8, 0.25 M LiCl, 0.5% IPEGAL CA-630, 0.5% sodium deoxycholic acid salt (DOC), 1 mM EDTA), and, once with 10 mM Tris/1 mM EDTA buffer (TE) pH 8. Ips and inputs were reverse-crosslinked in TE/0.5% SDS/0.5 μg/μL proteinase K for 55° C./3 hours then 65° C./18 hours, then DNA was purified using a PCR cleanup spin column (Takara #74609). The sequencing library preparation was performed using NEBNext Ultra II DNA kit (#E7645S). Libraries were sequenced on an Illumina NovaSeq (Novogene).
The data quality was checked using fastqc. The raw reads were trimmed from adapters with trim_galore (parameters: —paired—255 Ilumine) and raw reads were aligned to hg38 human genome assembly and the dm6 fly genome assembly using bowtie2 (parameters: —local—maxins 1000). Low quality reads, duplicated reads and reads with multiple alignments were removed using samtools (Li et al., Bioinformatics (2009) 25: 2078-2079) and Picard (broadinstitute.github.io/picard/). Macs2 was used to map position of peaks with FDR cutoff of 0.05. Bedtools (Quinlan et al, Bioinformatics (2010) 26: 841-842) was used to find consensus set of peaks by merging peaks across multiple conditions (bedtools merge), count number of reads in peaks (bedtools intersect—c) and generate genome coverage (bedtools genomecov-bga). deepTools (Ramirez et al., Nucleic Acids Research (2016) 44: W160-W165). […] This procedure was carried out on a per-antigen basis (i.e., the H3K27ac ChIPs were treated separately from the Pol II ser 2 phos ChIPs which were separate from the Poll II ser 5 phos ChIPs). The average percentage of reads in each sample that mapped to the fly genome was 1.8±1.4% (mean±s.d.). All browser tracks and metaprofiles shown were calculated with spike-in normalized and input-subtracted data. The peak differential analysis and PCA analysis was performed using DESeq2^82.
BRD4 and other BET proteins have previously been implicated largely in transcriptional elongation, particularly in mediating P-TEFb/CDK9 activation of RNA Polymerase II ([…]) elongation activity by phosphorylation of serine 2 of the C-terminal domain (CTD) of Pol II ([…] ser 2 phos). […]

The next assay deals with T1, BRD4^BD1 (Homo sapiens, UniProt O60885).
T1 construct: 6xHis-TEV (N, cleaved yes)
The assay is described as follows: Isothermal calorimetry (ITC), binary titration. It is filed as binding. Conditions: read-out: KD BRD4:TCIP1. The text has this:
The first one or two injections and outliers from instrument noise were routinely excluded. Data was fit to a one-site model using MicroCal LLC Origin software.
One reason for a broadening of the hook effect is the formation of cooperative protein-protein interactions induced by the drug, such as a molecular glue.

In assay [2] the test system is primary human fibroblasts. The assay can be described thus: Cell viability of primary human fibroblasts. Conditions: 72 hours, read-out: EC50 of killing of fibroblasts. Type of assay: cell-based. As for the experimental part: Lymphoma and leukemia cells were cultured in RPMI-1640 (ATCC 30-2001)+10% FBS with antibiotics (100× PenStrep GIBCO #15140122). Primary human fibroblasts were obtained from ATCC (#CRL2522), cultured in DMEM+10% FBS with antibiotics and used at passages 3-5. Primary human tonsillar lymphocytes were a kind gift from M. M. Davis. Cells were routinely checked for mycoplasma and immediately checked upon suspicion. No cultures tested positive.
30,000 cells were plated in 100 μL media per well of a 96 well plate and treated with drug for indicated times and doses. A resazurin-based indicator of cell health (PrestoBlue, ThermoFisher #P50200) was added for 1.5 hours after which the fluorescence ratio at 560/590 nm was recorded. The background fluorescence was subtracted and the signal was normalized to DMSO-treated cells. EC50 measurements on cell lines were done with 4 biological repeats by separate cell passages maintained by 3 independent investigators. Fit of dose-response curves to data and statistical analysis was performed using drc package in R using the four-parameter log-logistic function.
After treatment, mouse tissue was harvested for RNA-seq and histology. […] Serum concentrations after 8 hours were -100 to 400-fold higher than therapeutic doses (FIG. 37, Panel C).

Setting [3] is: after 2 hours, of 51,678 consensus peaks.

The term Kd denotes the free concentration of one partner at which half of the binding sites on the other are occupied at equilibrium, for simple one-to-one binding. By EC50 is commonly meant the concentration giving half of the maximal effect.

Structures are written as SMILES. Bounds are passed on as bounds.

On to `CNC(=O)COc1cc2cc(Nc3nc(N4CCC(C(=O)NCCCCCCCNC(=O)C[C@@H]5N=C(c6ccc(Cl)cc6)c6c(sc(C)c6C)-n6c(C)nnc65)CC4)ncc3Cl)cc(OC)c2n(C)c1=O` [TCIP1], for which, in assay [1] (ChIP-seq, one hour), the “Increase of BRD4 at promoters of BCL6 target genes / genomic BCL6 binding sites” value is on record as 50%. In assay [1] (setting [3]), this compound registered an H3K27ac peaks decreased of 70 peaks and an H3K27ac peaks increased of 126 peaks. Also, on BRD4^BD1, the Kd amounted to 5.08 µM. Moreover, the EC50 in assay [2] is around 470 nM.
Regarding `CNC(=O)COc1cc2cc(Nc3nc(N4CCC(C(=O)NCCCCCCCNC(=O)C[C@@H]5N=C(c6ccc(Cl)cc6)c6c(sc(C)c6C)-n6c(C)nnc65)CC4)ncc3Cl)cc(OC)c2n(C)c1=O` [JWZ-7-7, (S)-1-(5-chloro-4-((8-methoxy-1-methyl-3-(2-(methylamino)-2-oxoethoxy)-2-oxo-1,2-dihydroquinolin-6-yl)amino)pyrimidin-2-yl)-N-(7-(2-(4-(4-chlorophenyl)-2,3,9-trimethyl-6H-thieno[3,2-f][1,2,4]triazolo[4,3-a][1,4]diazepin-6-yl)acetamido)heptyl)piperidine-4-carboxamide], the “Time to Pol II serine 2 phosphorylation (transcriptional elongation) at BCL6 targets” value in assay [1] (10 nM) is at most 15 min. In addition, the “Loss of BRD4 from enhancers and super enhancers” value in assay [1] (ChIP-seq) is given as “about 10%”. Besides, the “Fraction of total BRD4 recruited / relocalized to BCL6 target genes” value in assay [1] (Karpas 422, one hour) is on record as “about 10%”.

The values are drawn from patent US12685777B2, “Compositions, systems, and methods for modulating a target gene” (The Board of Trustees of the Leland Stanford Junior …, priority 2022, dated 2026).
